Results published in ChEMBL document CHEMBL1129504, “Structure-activity relationship for antineoplastic imidazoacridinones: synthesis and antileukemic activity in vivo” (1996).

Test system: Mus musculus
Test: In vivo activity against murine P388 leukemia in mice at optimal dose 70 mg/kg/day
Format: functional

CN(C)CCCCCNc1ccc2ncn3c4ccc(O)cc4c(=O)c1c23
T/C: 172%
